Results from patent publication US10131652B2, “Pyrimidinyloxy benzene derivatives as herbicides” (E. I. DU PONT DE NEMOURS AND COMPANY, priority 2014, dated 2018).

What was measured:
Format in all cases: in vivo
[1] = tested on: galium (catchweed bedstraw, Galium aparine); experiment: Test B postemergence plant response; conditions: 0 to 100 scale, 0 no effect, 100 complete control
In short: (§1)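 Plants grown in pots of loam soil–sand blend were sprayed postemergence with formulated test chemicals at 2 to 10 cm height, one- to two-leaf stage. After about 10 days in a greenhouse, injury was visually rated against untreated controls on a 0 to 100 scale (0 no effect, 100 complete control).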

[2] = tested on: blackgrass (Alopecurus myosuroides); experiment: Test B postemergence plant response; conditions: 0 to 100 scale, 0 no effect, 100 complete control
In short: as §1

[3] = tested on: pigweed (Amaranthus retroflexus); experiment: Test B pre-/postemergence plant response; conditions: for Pigweed plant response rating: 0 to 100 scale (0 no effect, 100 complete control)
Description: (§2) Seeds of plant species selected from bamyardgrass (Echinochloa crus-galli), kochia (Kochia scoparia), ragweed (common ragweed, Ambrosia elatior), Italian ryegrass (Lolium multiflorum), large (Lg) crabgrass (Digitaria sanguinalis), giant foxtail (Setaria faberii), momingglory (Ipomoea spp.), pigweed (Amaranthus retroflexus), velvetleaf (Abutilon theophrasti), wheat (Triticum aestivum), and corn (Zea mays) were planted into a blend of loam soil and sand and treated preemergence with a directed soil spray using test chemicals formulated in a non-phytotoxic solvent mixture which included a surfactant. At the same time, plants selected from these crop and weed species and also blackgrass (Alopecurus myosuroides), and galium (catchweed bedstraw, Galium aparine) were planted in pots containing the same blend of loam soil and sand and treated with postemergence applications of test chemicals formulated in the same manner. Plants ranged in height from 2 to 10 cm and were in the one- to two-leaf stage for the postemergence treatment. Treated plants and untreated controls were maintained in a greenhouse for approximately 10 days, after which time all treated plants were compared to untreated controls and visually evaluated for injury. Plant response ratings, summarized in Table B, are based on a 0 to 100 scale where 0 is no effect and 100 is complete control. A dash (-) response means no test result.

[4] = tested on: barnyardgrass (Echinochloa crus-galli); experiment: Test B pre-/postemergence plant response; conditions: for Barnyardgrass plant response rating: 0 to 100 scale (0 no effect, 100 complete control)
Description: as §2

[5] = tested on: Italian ryegrass (Lolium multiflorum); experiment: Test B pre-/postemergence plant response; conditions: for Ryegrass, Italian plant response rating: 0 to 100 scale (0 no effect, 100 complete control)
Description: as §2

[6] = tested on: ragweed (common ragweed, Ambrosia elatior); experiment: Test B pre-/postemergence plant response; conditions: for Ragweed plant response rating: 0 to 100 scale (0 no effect, 100 complete control)
Description: as §2

kochia (Kochia scoparia) = experiment: Test B pre-/postemergence plant response; conditions: for Kochia plant response rating: 0 to 100 scale (0 no effect, 100 complete control)
Description: as §2

corn (Zea mays) = experiment: Test B pre-/postemergence plant response; conditions: 0 to 100 scale, 0 no effect, 100 complete control
Description: as §2

[7] = tested on: giant foxtail (Setaria faberii); experiment: Test B pre-/postemergence plant response; conditions: for Foxtail, Giant plant response rating: 0 to 100 scale (0 no effect, 100 complete control)
Description: as §2

[8] = tested on: wheat (Triticum aestivum); experiment: Test B pre-/postemergence plant response; conditions: 0 to 100 scale, 0 no effect, 100 complete control
Description: as §2

[9] = tested on: ducksalad (Heteranthera limosa); experiment: Test C flooded paddy test plant response; conditions: Flood, 250 g ai/ha; scale of 0 to 100 where 0 is no effect and 100 is complete control; 13 to 15 days
Procedure: (§3) Plant species in the flooded paddy test selected from rice (Oryza sativa), small-flower umbrella sedge (Cyperus difformis), ducksalad (Heteranthera limosa), and bamyardgrass (Echinochloa crus-galli) were grown to the 2-leaf stage for testing. At time of treatment, test pots were flooded to 3 cm above the soil surface, treated by application of test compounds directly to the paddy water, and then maintained at that water depth for the duration of the test. Treated plants and controls were maintained in a greenhouse for 13 to 15 days, after which time all species were compared to controls and visually evaluated. Plant response ratings, summarized in Table C, are based on a scale of 0 to 100 where 0 is no effect and 100 is complete control. A dash (-) response means no test result.

[10] = tested on: barnyardgrass (Echinochloa crus-galli); experiment: Test C flooded paddy test plant response; conditions: Flood, 250 g ai/ha; scale of 0 to 100 where 0 is no effect and 100 is complete control; 13 to 15 days
Procedure: as §3

[11] = tested on: small-flower umbrella sedge (Cyperus difformis); experiment: Test C flooded paddy test plant response; conditions: Flood, 250 g ai/ha; scale of 0 to 100 where 0 is no effect and 100 is complete control; 13 to 15 days
Procedure: as §3

rice (Oryza sativa) = experiment: Test C flooded paddy test plant response; conditions: Flood, 250 g ai/ha; scale of 0 to 100 where 0 is no effect and 100 is complete control; 13 to 15 days
Procedure: as §3

[12] = 31 g ai/ha, Postemergence, 0 to 100 scale, 0 no effect, 100 complete control
[13] = 125 g ai/ha, postemergence, 0 to 100 scale, 0 no effect, 100 complete control
[14] = Preemergence, 125 g ai/ha, 0 to 100 scale where 0 is no effect and 100 is complete control

| Structure (SMILES) | Plant response rating, Galium ([1]; 31 g ai/ha, Postemergence) | Plant response rating, Galium ([1]; 125 g ai/ha, postemergence) | Plant response rating, Blackgrass ([2]; 31 g ai/ha, Postemergence) | Plant response rating, Blackgrass ([2]; 125 g ai/ha, postemergence) | Plant response rating, Pigweed [3, 12] | Plant response rating, Pigweed [3, 13] | Pigweed plant response rating ([3]; Preemergence, 31 g ai/ha) | Plant response rating, Pigweed [3, 14] | Plant response rating, Barnyardgrass [4, 12] | Plant response rating, Barnyardgrass [4, 13] | Barnyardgrass plant response rating ([4]; Preemergence, 31 g ai/ha) | Plant response rating, Barnyardgrass [4, 14] | Plant response rating, Ryegrass, Italian [5, 12] | Plant response rating, Ryegrass, Italian [5, 13] | Ryegrass, Italian plant response rating ([5]; Preemergence, 31 g ai/ha) | Plant response rating, Ryegrass, Italian [5, 14] | Plant response rating, Ragweed [6, 12] | Plant response rating, Ragweed [6, 13] | Ragweed plant response rating ([6]; Preemergence, 31 g ai/ha) | Plant response rating, Ragweed [6, 14] | also measured |
| --- | --- | --- | --- | --- | --- | --- | --- | --- | --- | --- | --- | --- | --- | --- | --- | --- | --- | --- | --- | --- | --- |
| CC(C)n1nc(C(F)(F)F)cc1-c1c(C#N)cccc1Oc1ncc(Cl)cn1 [Compound 90] | 0 | 30 | 0 | 0 | 0 | 10 | 0 | 20 | 0 | 0 | 0 | 0 | 0 | 0 | 0 | 0 | 0 | 0 | 0 | 0 | Plant response rating, Kochia (kochia (Kochia scoparia); [12]): 0; Plant response rating, Kochia (kochia (Kochia scoparia); [13]): 10; Kochia plant response rating (kochia (Kochia scoparia); Preemergence, 31 g ai/ha): 0; Plant response rating, Kochia (kochia (Kochia scoparia); [14]): 0; Plant response rating, Corn (corn (Zea mays); 31 g ai/ha, Postemergence): 0; Plant response rating, Corn (corn (Zea mays); 125 g ai/ha, postemergence): 0; Plant response rating, Foxtail, Giant [7, 12]: 0; Plant response rating, Foxtail, Giant [7, 13]: 0; Foxtail, Giant plant response rating ([7]; Preemergence, 31 g ai/ha): 0; Plant response rating, Foxtail, Giant [7, 14]: 0; Plant response rating, Wheat ([8]; 31 g ai/ha, Postemergence): 0; Plant response rating, Wheat ([8]; 125 g ai/ha, postemergence): 0; Ducksalad plant response rating [9]: 0; Barnyardgrass plant response rating [10]: 0; Sedge, Umbrella plant response rating [11]: 0; Rice plant response rating (rice (Oryza sativa)): 0 |
| Clc1cnc(Oc2ccccc2-c2cc(C(Cl)Cl)on2)nc1 [Compound 97] | 10 | 50 | 0 | 0 | 60 | 90 | 20 | 50 | 0 | 20 | 0 | 0 | 0 | 0 | 0 | 0 | 20 | 50 | 0 | 0 | Plant response rating, Kochia (kochia (Kochia scoparia); [12]): 60; Plant response rating, Kochia (kochia (Kochia scoparia); [13]): 90; Kochia plant response rating (kochia (Kochia scoparia); Preemergence, 31 g ai/ha): 0; Plant response rating, Kochia (kochia (Kochia scoparia); [14]): 30; Plant response rating, Corn (corn (Zea mays); 31 g ai/ha, Postemergence): 0; Plant response rating, Corn (corn (Zea mays); 125 g ai/ha, postemergence): 20; Plant response rating, Foxtail, Giant [7, 12]: 0; Plant response rating, Foxtail, Giant [7, 13]: 30; Foxtail, Giant plant response rating ([7]; Preemergence, 31 g ai/ha): 10; Plant response rating, Foxtail, Giant [7, 14]: 30; Plant response rating, Wheat ([8]; 31 g ai/ha, Postemergence): 0; Plant response rating, Wheat ([8]; 125 g ai/ha, postemergence): 0; Ducksalad plant response rating [9]: 0; Barnyardgrass plant response rating [10]: 0; Sedge, Umbrella plant response rating [11]: 50; Rice plant response rating (rice (Oryza sativa)): 0 |
| COc1cccc(Oc2ncc(Cl)cn2)c1-c1cc(C(F)F)no1 [Compound 103] | 90 | 100 | 30 | 90 | 30 | 80 | 100 | 100 | 0 | 40 | 0 | 50 | 0 | 10 | 0 | 0 | 20 | 60 | 0 | 10 | Plant response rating, Kochia (kochia (Kochia scoparia); [12]): 0; Plant response rating, Kochia (kochia (Kochia scoparia); [13]): 30; Kochia plant response rating (kochia (Kochia scoparia); Preemergence, 31 g ai/ha): 0; Plant response rating, Kochia (kochia (Kochia scoparia); [14]): 10; Plant response rating, Corn (corn (Zea mays); 31 g ai/ha, Postemergence): 0; Plant response rating, Corn (corn (Zea mays); 125 g ai/ha, postemergence): 30; Plant response rating, Foxtail, Giant [7, 12]: 40; Plant response rating, Foxtail, Giant [7, 13]: 70; Foxtail, Giant plant response rating ([7]; Preemergence, 31 g ai/ha): 50; Plant response rating, Foxtail, Giant [7, 14]: 90; Plant response rating, Wheat ([8]; 31 g ai/ha, Postemergence): 0; Plant response rating, Wheat ([8]; 125 g ai/ha, postemergence): 0; Ducksalad plant response rating [9]: 40; Barnyardgrass plant response rating [10]: 60; Sedge, Umbrella plant response rating [11]: 80; Rice plant response rating (rice (Oryza sativa)): 30 |
| COc1cccc(Oc2ncc(Cl)cn2)c1-c1cc(C(F)(F)F)on1 [Compound 105] | 70 | 100 | 70 | 100 | 90 | 100 | 100 | 100 | 10 | 70 | 20 | 90 | 0 | 10 | 0 | 20 | 10 | 30 | 0 | 0 | Plant response rating, Kochia (kochia (Kochia scoparia); [12]): 30; Plant response rating, Kochia (kochia (Kochia scoparia); [13]): 70; Kochia plant response rating (kochia (Kochia scoparia); Preemergence, 31 g ai/ha): 0; Plant response rating, Kochia (kochia (Kochia scoparia); [14]): 10; Plant response rating, Corn (corn (Zea mays); 31 g ai/ha, Postemergence): 10; Plant response rating, Corn (corn (Zea mays); 125 g ai/ha, postemergence): 20; Plant response rating, Foxtail, Giant [7, 12]: 40; Plant response rating, Foxtail, Giant [7, 13]: 80; Foxtail, Giant plant response rating ([7]; Preemergence, 31 g ai/ha): 70; Plant response rating, Foxtail, Giant [7, 14]: 100; Plant response rating, Wheat ([8]; 31 g ai/ha, Postemergence): 0; Plant response rating, Wheat ([8]; 125 g ai/ha, postemergence): 10; Ducksalad plant response rating [9]: 40; Barnyardgrass plant response rating [10]: 45; Sedge, Umbrella plant response rating [11]: 70; Rice plant response rating (rice (Oryza sativa)): 35 |
| Cc1nnc(-c2ccccc2Oc2ncc(Cl)cn2)o1 [Compound 106] | 0 | 0 | 0 | 0 | 0 | 0 | 0 | 0 | 0 | 0 | 0 | 0 | 0 | 0 | 0 | 0 | 0 | 0 | 0 | 0 | Plant response rating, Kochia (kochia (Kochia scoparia); [12]): 0; Plant response rating, Kochia (kochia (Kochia scoparia); [13]): 0; Kochia plant response rating (kochia (Kochia scoparia); Preemergence, 31 g ai/ha): 0; Plant response rating, Kochia (kochia (Kochia scoparia); [14]): 0; Plant response rating, Corn (corn (Zea mays); 31 g ai/ha, Postemergence): 0; Plant response rating, Corn (corn (Zea mays); 125 g ai/ha, postemergence): 0; Plant response rating, Foxtail, Giant [7, 12]: 0; Plant response rating, Foxtail, Giant [7, 13]: 0; Foxtail, Giant plant response rating ([7]; Preemergence, 31 g ai/ha): 0; Plant response rating, Foxtail, Giant [7, 14]: 0; Plant response rating, Wheat ([8]; 31 g ai/ha, Postemergence): 0; Plant response rating, Wheat ([8]; 125 g ai/ha, postemergence): 0; Ducksalad plant response rating [9]: 0; Barnyardgrass plant response rating [10]: 0; Sedge, Umbrella plant response rating [11]: 0; Rice plant response rating (rice (Oryza sativa)): 0 |
